Results on 26 compounds are retold here after patent US9718828B2 (MERCK SHARP & DOHME CORP., priority 2011, dated 2017).

By EC50 is commonly meant the concentration needed to bring the measured effect to its halfway point.

Where a name gives a salt, the structure may show the parent alone.

Sequence of Btk enzyme (His-Btk) (Q06187 whole entry): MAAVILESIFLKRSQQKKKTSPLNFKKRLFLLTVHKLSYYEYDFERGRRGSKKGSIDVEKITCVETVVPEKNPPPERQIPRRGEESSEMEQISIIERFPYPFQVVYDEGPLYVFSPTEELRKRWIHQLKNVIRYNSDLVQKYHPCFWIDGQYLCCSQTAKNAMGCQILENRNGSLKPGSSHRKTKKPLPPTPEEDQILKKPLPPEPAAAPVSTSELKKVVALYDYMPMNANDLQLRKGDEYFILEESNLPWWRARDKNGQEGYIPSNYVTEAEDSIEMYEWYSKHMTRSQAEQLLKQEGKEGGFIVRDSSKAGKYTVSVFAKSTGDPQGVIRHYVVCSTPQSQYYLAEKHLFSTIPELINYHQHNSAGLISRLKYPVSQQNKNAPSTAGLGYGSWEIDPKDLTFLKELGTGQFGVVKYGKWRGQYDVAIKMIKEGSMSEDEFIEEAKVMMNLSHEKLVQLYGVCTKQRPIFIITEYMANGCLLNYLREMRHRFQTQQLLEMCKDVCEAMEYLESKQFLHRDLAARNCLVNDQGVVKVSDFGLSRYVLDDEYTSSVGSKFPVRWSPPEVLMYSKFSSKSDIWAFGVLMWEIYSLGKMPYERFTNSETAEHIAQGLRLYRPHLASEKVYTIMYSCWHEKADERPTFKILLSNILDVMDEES

The first assay has as its target Btk enzyme (His-Btk) (Homo sapiens (Human), UniProt Q06187). Briefly: Btk enzyme activity, IMAP fluorescence polarization assay (Assay Method A).
Conditions: not given
Background: In fluorescence polarisation assays a small probe gives low polarisation when free and higher when bound to something large.
In turn, `Nc1nccn2c1c(-c1ccc(C(=O)Nc3ccccn3)c(Cl)c1)nc2[C@H]1CC[C@H](O)CC1` [Example 23, 4-(8-amino-3-((trans)-4-hydroxycyclohexyl)imidazo[1,5-a]pyrazin-1-yl)-2-chloro-N-(pyridin-2-yl)benzamide] registered an EC50 of 10 to 100 nM.

As to `Nc1nccn2c([C@@H]3CCCN(S(=O)(=O)C4CC4)C3)nc(-c3ccc(C(=O)Nc4cc(C(F)(F)F)ccn4)cc3)c12` [Example 75, (R)-4-(8-amino-3-(1-(cyclopropylsulfonyl)piperidin-3-yl)imidazo[1,5-a]pyrazin-1-yl)-N-(4-(trifluoromethyl)pyridin-2-yl)benzamide], the EC50 was less than 10 nM.

For `[2H]C([2H])([2H])c1cnc(N)c2c(-c3ccc(C(=O)Nc4cc(C(F)(F)F)ccn4)cc3)nc([C@@H]3CCCN(C(=O)C4(C)COC4)C3)n12` [Example 317, (R)-4-(8-amino-5-deuteromethyl-3-(1-(3-methyloxetane-3-carbonyl)piperidin-3-yl)imidazo[1,5-a]pyrazin-1-yl)-N-(4-(trifluoromethyl)pyridin-2-yl)benzamide], the concentration giving a half-maximal response (EC50) is less than 10 nM.

Take `Nc1nccn2c1c(-c1ccc(C(=O)Nc3ccccn3)c3ccccc13)nc2[C@H]1CC[C@H](O)CC1` [Example 22, 4-(8-amino-3-((trans)-4-hydroxycyclohexyl)imidazo[1,5-a]pyrazin-1-yl)-N-(pyridin-2-yl)-1-naphthamide]: the EC50 was in the range of 100 to 1000 nM.

For `CC(C)(CO)C(=O)N1CCC[C@@H](c2nc(-c3ccc(C(=O)Nc4cc(C(F)(F)F)ccn4)cc3)c3c(N)nccn23)C1` [Example 78, (R)-4-(8-amino-3-(1-(3-hydroxy-2,2-dimethylpropanoyl)piperidin-3-yl)imidazo[1,5-a]pyrazin-1-yl)-N-(4-(trifluoromethyl)pyridin-2-yl)benzamide], the EC50 is less than 10 nM.

Turning to `CC[C@H](C)C(=O)N1CCC[C@@H](c2nc(-c3ccc(C(=O)Nc4ccccn4)cc3)c3c(N)nccn23)C1` [Example 58, 4-(8-amino-3-((R)-1-((S)-2-methylbutanoyl)piperidin-3-yl)imidazo[1,5-a]pyrazin-1-yl)-N-(pyridin-2-yl)benzamide], the EC50 fell in the range of 10 to 100 nM.

For `Cc1nc(-c2ccc(C(=O)Nc3cc(C(F)(F)F)ccn3)cc2)c2c(N)ncc(C(O)CC(C)C)n12` (centres unmarked) [Example 323, 4-(8-amino-5-(1-hydroxy-3-methylbutyl)-3-methylimidazo[1,5-a]pyrazin-1-yl)-N-(4-(trifluoromethyl)pyridin-2-yl)benzamide], the EC50 is 10 to 100 nM.

In the case of `Nc1nccn2c([C@@H]3CCCN(C(=O)[C@H]4CC(=O)N4)C3)nc(-c3ccc(C(=O)Nc4cc(C(F)(F)F)ccn4)cc3)c12` [Example 87, 4-(8-amino-3-((R)-1-((R)-4-oxoazetidine-2-carbonyl)piperidin-3-yl)imidazo[1,5-a]pyrazin-1-yl)-N-(4-(trifluoromethyl)pyridin-2-yl)benzamide], the EC50 was less than 10 nM.

With `CC1(C(=O)N2CCC[C@@H](c3nc(-c4ccc(C(=O)Nc5cc(C(F)(F)F)ccn5)cc4)c4c(N)ncc(-c5ccccc5)n34)C2)COC1` [Example 321, (R)-4-(8-amino-3-(1-(3-methyloxetane-3-carbonyl)piperidin-3-yl)-5-phenylimidazo[1,5-a]pyrazin-1-yl)-N-(4-(trifluoromethyl)pyridin-2-yl)benzamide], the EC50 was 10 to 100 nM.

As for `N#Cc1ccnc(NC(=O)c2ccc(-c3nc(C4CCOCC4)n4ccnc(N)c34)cc2)c1` [Example 26, 4-(8-amino-3-(tetrahydro-2H-pyran-4-yl)imidazo [1,5-a]pyrazin-1-yl)-N-(4-cyanopyridin-2-yl)benzamide], the EC50 is 10 to 100 nM.

The assay is the same for the next values; noted with them: read-out: EC50 Btk activity values - Assay Method A; IMAP-FP, 60 min pre-incubation, 5 μM ATP; class 100-1000 is given as ≧100 nM-<1 μM.
For the compound `Nc1nccn2c(N3CCCC(C(=O)NC4CC(F)(F)C4)C3)nc(-c3ccc(C(=O)Nc4cc(C(F)(F)F)ccn4)cc3)c12` (centres unmarked) [Example 226, 1-(8-amino-1-(4-(4-(trifluoromethyl)pyridin-2-ylcarbamoyl)phenyl)imidazo[1,5-a]pyrazin-3-yl)-N-(3,3-difluorocyclobutyl)piperidine-3-carboxamide, TFA salt], the EC50 is less than 10 nM.

Take `COCCC(=O)N[C@@H]1CCCN(c2nc(-c3ccc(C(=O)Nc4cc(C(F)(F)F)ccn4)cc3)c3c(N)nccn23)C1` [Example 219, (R)-4-(8-amino-3-(3-(3-methoxypropanamido)piperidin-1-yl)imidazo[1,5-a]pyrazin-1-yl)-N-(4-(trifluoromethyl)pyridin-2-yl)benzamide]: the EC50 is less than 10 nM.

Turning to `CCOC(=O)N1CCC[C@@H](c2nc(-c3ccc(C(=O)Nc4cc(C(F)(F)F)ccn4)cc3)c3c(N)ncnn23)C1` [Example 255, (R)-ethyl 3-(4-amino-5-(4-(4-(trifluoromethyl)pyridin-2-ylcarbamoyl)phenyl)imidazo[1,5-f][1,2,4]triazin-7-yl)piperidine-1-carboxylate], the EC50 was less than 10 nM.

With `Nc1nccn2c([C@@H]3C[C@H](O)CN(C(=O)C4CC4)C3)nc(-c3ccc(C(=O)Nc4cc(C(F)(F)F)ccn4)cc3)c12` (relative stereo) [Example 180, 4-(8-amino-3-((cis)-1-(cyclopropanecarbonyl)-5-hydroxypiperidin-3-yl)imidazo[1,5-a]pyrazin-1-yl)-N-(4-(trifluoromethyl)pyridin-2-yl)benzamide], the EC50 was less than 10 nM.

As to `C[C@H]1CC[C@@H](c2nc(-c3ccc(C(=O)Nc4cc(C(F)(F)F)ccn4)cc3)c3c(N)nccn23)CN1C(=O)C1CC1` (relative stereo) [Example 202, 4-(8-amino-3-((cis)-1-(cyclopropanecarbonyl)-6-methylpiperidin-3-yl)imidazo[1,5-a]pyrazin-1-yl)-N-(4-(trifluoromethyl)pyridin-2-yl)benzamide, TFA salt], the EC50 is less than 10 nM.

Consider `C[C@H]1CC[C@@H](c2nc(-c3ccc(C(=O)Nc4cc(C5CC5)ccn4)cc3)c3c(N)nccn23)CN1C(=O)N1CCCCC1` (relative stereo) [Example 184, 4-(8-amino-3-((cis)-6-methyl-1-(piperidine-1-carbonyl)piperidin-3-yl)imidazo[1,5-a]pyrazin-1-yl)-N-(4-cyclopropylpyridin-2-yl)benzamide, TFA salt], for which the EC50 was less than 10 nM.

`Nc1nccn2c([C@@H]3CCCN(CC4CCOC4)C3)nc(-c3ccc(C(=O)Nc4cc(C(F)(F)F)ccn4)cc3)c12` (stereo partly drawn) [Example 142, 4-(8-amino-3-((3R)-1-((tetrahydrofuran-3-yl)methyl)piperidin-3-yl)imidazo[1,5-a]pyrazin-1-yl)-N-(4-(trifluoromethyl)pyridin-2-yl)benzamide, TFA salt]: the concentration giving a half-maximal response (EC50) was less than 10 nM.

Consider `CC1(C(=O)N2CCC[C@@H](c3nc(-c4ccc(C(=O)Nc5cc(C(F)(F)F)ccn5)cc4)c4c(N)ncc(/C=C/c5ccccc5)n34)C2)COC1` [Example 309, (R,E)-4-(8-amino-3-(1-(3-methyloxetane-3-carbonyl)piperidin-3-yl)-5-styrylimidazo[1,5-a]pyrazin-1-yl)-N-(4-(trifluoromethyl)pyridin-2-yl)benzamide], for which the EC50 is less than 10 nM.

`C[C@H]1CC[C@@H](c2nc(-c3ccc(C(=O)Nc4cc(C(F)(F)F)ccn4)cc3)c3c(N)nccn23)CN1C(=O)C1CCCO1` (relative stereo) [Example 194, 4-(8-amino-3-((cis)-6-methyl-1-(tetrahydrofuran-2-carbonyl)piperidin-3-yl)imidazo[1,5-a]pyrazin-1-yl)-N-(4-(trifluoromethyl)pyridin-2-yl)benzamide, TFA salt]: the EC50 is less than 10 nM.

Consider `Cn1cc(CN2CCC[C@@H](c3nc(-c4ccc(C(=O)Nc5ccccn5)cc4)c4c(N)nccn34)C2)cn1` [Example 135, (R)-4-(8-amino-3-(1-((1-methyl-1H-pyrazol-4-yl)methyl)piperidin-3-yl)imidazo[1,5-a]pyrazin-1-yl)-N-(pyridin-2-yl)benzamide, TFA salt], for which the EC50 is less than 10 nM.

In the case of `Nc1nccn2c(C3CCOCC3)nc(-c3ccc(C(=O)Nc4cc(C(F)(F)F)ccn4)cc3)c12` [Example 25, 4-(8-amino-3-(tetrahydro-2H-pyran-4-yl)imidazo[1,5-a]pyrazin-1-yl)-N-(4-(trifluoromethyl)pyridin-2-yl)benzamide], the 50% effective concentration (EC50) was less than 10 nM.

With `CC1(C(=O)N2CCC[C@@H](n3nc(-c4ccc(C(=O)Nc5cc(C(F)(F)F)ccn5)cc4)c4c(N)ncnc43)C2)CCC1` [Example 266, (R)-4-(4-amino-1-(1-(1-methylcyclobutanecarbonyl)piperidin-3-yl)-1H-pyrazolo[3,4-d]pyrimidin-3-yl)-N-(4-(trifluoromethyl)pyridin-2-yl)benzamide], the EC50 was less than 10 nM.

Regarding `CCCc1ccnc(NC(=O)c2ccc(-c3nc(C4CCOC(C)(C)C4)n4ccnc(N)c34)cc2)c1` (centres unmarked) [Example 36, 4-(8-amino-3-(2,2-dimethyltetrahydro-2H-pyran-4-yl)imidazo[1,5-a]pyrazin-1-yl)-N-(4-propylpyridin-2-yl)benzamide], the EC50 is less than 10 nM.

Consider `CS(=O)(=O)CCNC(=O)C1CCCN(c2nc(-c3ccc(C(=O)Nc4cc(C(F)(F)F)ccn4)cc3)c3c(N)nccn23)C1` (centres unmarked) [Example 240, 1-(8-amino-1-(4-(4-(trifluoromethyl)pyridin-2-ylcarbamoyl)phenyl)imidazo[1,5-a]pyrazin-3-yl)-N-(2-(methylsulfonyl)ethyl)piperidine-3-carboxamide, TFA salt], for which the EC50 was less than 10 nM.

`Nc1nccn2c(N3CCC[C@H](NC(=O)C4CCC4)C3)nc(-c3ccc(C(=O)Nc4cc(C(F)(F)F)ccn4)cc3)c12` [Example 223, (S)-4-(8-amino-3-(3-(cyclobutanecarboxamido)piperidin-1-yl)imidazo[1,5-a]pyrazin-1-yl)-N-(4-(trifluoromethyl)pyridin-2-yl)benzamide]: the EC50 was less than 10 nM.

`COCCC(=O)N1C[C@@H](O)C[C@@H](c2nc(-c3ccc(C(=O)Nc4cc(C(F)(F)F)ccn4)cc3)c3c(N)nccn23)C1` (relative stereo) [Example 181, 4-(8-amino-3-((cis)-5-hydroxy-1-(3-methoxypropanoyl)piperidin-3-yl)imidazo[1,5-a]pyrazin-1-yl)-N-(4-(trifluoromethyl)pyridin-2-yl)benzamide]: the EC50 was less than 10 nM.
